According to article PMC6272295, “In Vitro Neuroprotective Activities of Compounds from Angelica shikokiana Makino” (Molecules, 2015):
Like-named read-outs stand apart in the source and are kept apart here.

Columns and labels:
[1] = Scavenging of hydroxyl radical, 2-deoxyribose degradation assay; as to Hydroxyl Radical Scavenging (grade): key: +: Weak activity; ++: Strong activity
Experimental: The inhibitory effect of bioactive compounds on deoxyribose degradation was determined by measuring the competition between deoxyribose and bioactive compounds for the hydroxyl radicals (^.OH) generated from the Fe^3+/ascorbate/EDTA/H2O2 system (referred to non-site-specific assay; the major activity measured is ^.OH scavenging) or an Fe^3+/ascorbate/H2O2 system (referred to as a site-specific assay; major activity measured is metal chelation). Both assays depend on the formation of a highly reactive hydroxyl radical, OH, by the interaction of iron ions with H2O2 through Fenton’s reaction. […] This assay was performed as previously described. Different concentrations of tested compounds were dissolved in 400 µL phosphate buffer (0.2 M, pH 7.4). Then, 50 µL of deoxyribose (60 mM), 50 µL of Na2EDTA (2 mM), 50 µL of FeCl3 (3.2 mM), 50 µL of H2O2 (60 mM) and 50 µL of ascorbic acid (2 mM) were added, and the total volume of the reaction mixture was adjusted to 1 mL with buffer. After water-bath incubation at 50 °C for 25 min, the reaction was terminated by 250 µL of trichloroacetic acid (10%, w/w). […] For site-specific hydroxyl-radical-scavenging activity, the reaction mixture was similar to the above method, except that EDTA was replaced by an equivalent volume of buffer.
IC50 values of isolated compounds in AChEI and scavenging of hydroxyl radical assays were calculated using Probit Analysis (SPSS Version 16.0 for Windows, SPSS Inc., Chicago, IL, USA) for five different concentrations in three independent experiments. Cell viability was expressed as a percentage of MTT reduction, assuming that the viability of cells treated with 1% DMSO as a negative control was 100%. […] All values are the mean ± SD of three independent experiments. Data were analyzed for statistical significance using one-way ANOVA, followed by Dunnet’s test as a post-hoc test with GraphPad Prism 5.0 software for Windows (Inc., San Diego, CA, USA).

neuro-2A cells = experiment: Protection against Aβ25-35-induced neurotoxicity (MTT); type: cell-based, Mouse; settings: for Protection against Aβ25-35: summary Table 4; for neuroprotection against Aβ25-35 (in words): at the highest concentration (100 µM); as to Protection against Aβ25-35: key: +: Weak activity; ++: Strong activity
Experimental: Neuro-2A cell line was maintained in Eagle’s Minimum Essential medium supplemented with 10% fetal bovine serum, 1% of 100× antibiotic—antimitotic agents (containing penicillin and streptomycin) in a humid atmosphere of 5% (v/v) CO2 and 95% (v/v) air at 37 °C. Neuro-2A cells were plated in 96-well cell culture plates at a density of 3 × 10^4 cells/well for H2O2 and intracellular ROS assays and 2.5 × 10^3 cells/well for the Aβ25-35-assay.
Cell viability was determined by MTT reduction assay. Briefly, after treatment with isolated compounds, the media was replaced by fresh one after washing the cells with 100 µL PBS and 20 µL of MTT (5 mg/mL) was added to each well. After 4 h incubation at 37 °C, the state of cells was checked under microscope to confirm either cytotoxicity in H2O2 and Aβ25-35 wells or protection in positive controls and isolated compounds ones. The supernatants were aspirated carefully, and 150 µL of DMSO was added to each well to dissolve the dark blue formazan crystals. The absorbance was measured using a microplate reader at 570 nm.
Similarly, the concentration of Aβ25-35 that decreased cell viability to about 50% was determined. […] So, the cells were incubated with different concentrations of the isolated compounds (6.25, 12.5, 25, 50 and 100 µM) and EGCG as a positive control for 3 h followed by Aβ25-35 treatment for 72 h.

[2] = Fe3+/ascorbate/EDTA/H2O2 system, read-out: IC50 hydroxyl radical scavenging, Non Site-Specific
[3] = Fe3+/ascorbate/H2O2 system without EDTA, read-out: IC50 hydroxyl radical scavenging, Site-Specific
[4] = summary Table 4 (values of the non site-specific assay), read-out: Hydroxyl Radical Scavenging/IC50

Row | Structure (SMILES) | % Inhibition of deoxyribose degradation, Non Site-Specific ([1]; at 300 µM (maximum solubility in phosphate buffer)) | Hydroxyl Radical Scavenging (grade) ([1]; summary Table 4) | Protection against Aβ25-35 (neuro-2A cells) | IC50 [1, 2] | IC50 [1, 3] | IC50 [1, 4] | neuroprotection against Aβ25-35 (in words) (neuro-2A cells)
1 | CC(=O)OC1c2c(ccc3ccc(=O)oc23)OC(C)(C)C1OC(=O)C(C)(O)C(C)O (stereo not shown) [Hyuganin E (6), hyuganin E] | 37.5 ± 3.5% | + | ++ | – | – | – | –
2 | O=c1c(O)c(-c2ccc(O)cc2)oc2cc(O)cc(O)c12 [Kaempferol (8), kaempferol] | – | – | + | 720 ± 7.9 µM | 901 ± 17.9 µM | 720 ± 7.9 µM | significant neuroprotection (p < 0.05)
3 | O=c1c(OC2OC(CO)C(O)C(O)C2O)c(-c2ccc(O)cc2)oc2cc(O)cc(O)c12 (stereo not shown) [Kaempferol-3-O-glucoside (13), kaempferol-3-O-glucoside] | – | – | + | 1150 ± 6.7 µM | 1300 ± 24.3 µM | 1150 ± 6.7 µM | significant neuroprotection (p < 0.05)
